Read-outs that look alike come from different tables or passages of the source. Values belong to the molecule of their own block, whether it stands above or below them.
Experiments:
[1] = tested on: RS4; 11; experiment: In vitro anti-proliferation assay (ATPlite) in BCL-2-dependent ALL cell line RS4; 11; type: cell-based
Experimental: Cell antiproliferation was assayed by PerkinElmer ATPlite™ Luminescence Assay System. Briefly, the various test cancer cell lines were plated at a density of about 1×10^4 cells per well in Costar 96-well plates, and were incubated with different concentrations of compounds for about 72 hours in medium supplemented with 5% FBS or 10% normal human serum (NHS). One lyophilized substrate solution vial was then reconstituted by adding 5 mL of substrate buffer solution, and was agitated gently until the solution is homogeneous. About 50 μL of mammalian cell lysis solution was added to 100 μL of cell suspension per well of a microplate, and the plate was shaken for about five minutes in an orbital shaker at ˜700 rpm. This procedure was used to lyse the cells and to stabilize the ATP. Next, 50 μL substrate solution was added to the wells and microplate was shaken for five minutes in an orbital shaker at ˜700 rpm. Finally, the luminescence was measured by a PerkinElmer TopCount® Microplate Scintillation Counter. Such assays, carried out with a range of doses of test compounds, allowed the determination of the cellular anti-antiproliferative IC50 of the compounds of the present invention.

[2] = tested on: BCL-2-dependent acute lymphoblastic leukemia RS4; 11 xenograft model; experiment: In vivo RS4; 11 xenograft study; design: species or system CB.17 SCID mice; settings: for BW Nadir / Tumor volume: po
From the text: The CB.17 SCID mice were obtained at age 6-8 weeks from vendors and acclimated for a minimum 7-day period. The cancer cells were then implanted into the […] mice. Depending on the specific tumor type, tumors were typically detectable about two weeks following implantation. When tumor sizes reached ˜100-200 mm^3, the animals with appreciable tumor size and shape were randomly assigned into groups of 8 mice each, including one vehicle control group and treatment groups. Dosing varies depending on the purpose and length of each study, which typically proceeded for about 3-4 weeks. Tumor sizes and body weight were typically measured three times per week. In addition to the determination of tumor size changes, the last tumor measurement was used to generate the tumor size change ratio (T/C value), a standard metric developed by the National Cancer Institute for xenograft tumor evaluation. In most cases, % T/C values were calculated using the following formula: % T/C=100×ΔT/ΔC if ΔT>0. When tumor regression occurred (ΔT<0), however, the following formula was used: % T/T0=100×ΔT/T0.

[3] = Mice PK study; type: in vivo; settings: po, 10 mg/kg, CD-1 mouse; for AUC / bioavailability / half-life: plasma; for bioavailability: read-out: Bioavailabilty; for half-life: read-out: t½ (converted)
Experimental: The pharmacokinetics of compounds were evaluated in CD-1 mouse via Intravenous and Oral Administration. The IV dose was administered as a slow bolus in the Jugular vein, and oral doses were administered by gavage. The formulation for IV dosing is 5% DMSO in 20% HPBCD in water, and the PO formulation is 2.5% DMSO, 10% EtOH, 20% Cremphor EL, 67.5% D5W. The PK time point for the IV arm was 5, 15, 30 min, 1, 2, 4, 6, 8, 12, 24 hours post dose, and for PO arm was 15, 30 min, 1, 2, 4, 6, 8, 12, 24 hours post dose. Approximately 0.03 mL blood was collected at each time point. Blood of each sample was transferred into plastic micro centrifuge tubes containing EDTA-K2 and plasma was collected within 15 min by centrifugation at 4000 g for 5 minutes in a 4′C centrifuge. Plasma samples were stored in polypropylene tubes. The samples were stored in a freezer at −75±15° C. prior to analysis. Concentrations of compounds in the plasma samples were analyzed using a LC-MS/MS method. WinNonlin (Phoenix™, version 6.1) or other similar software was used for pharmacokinetic calculations. The following pharmacokinetic parameters were calculated, whenever possible from the plasma concentration versus time data: IV administration: C0, CL, Vd, T1/2, AUCinf, AUClast, MRT, Number of Points for Regression; PO administration: Cmax, Tmax, T1/2, AUCinf, AUClast, F %, Number of Points for Regression. The pharmacokinetic data was described using descriptive statistics such as mean, standard deviation. Additional pharmacokinetic or statistical analysis was performed at the discretion of the contributing scientist, and was documented in the data summary.

[4] = cited from earlier work
[5] = tested on: H345 xenograft model; settings: 100 mg/kg/day; cited from earlier work
[6] = tested on: xenograft models of small-cell lung cancer and acute lymphoblastic leukemia; settings: oral administration, alone; cited from earlier work
[7] = tested on: circulating platelets; settings: clinical trial; cited from earlier work
[8] = Homo sapiens, RS4-11, 72 h, read-out: IC50, RS4, 11 5% FBS, about 72 hours, first study
[9] = Homo sapiens, RS4-11, 72 h, read-out: IC50, RS4, 11 5% FBS, about 72 hours, another study

IC50 [1, 8]: 5.5 nM
BW Nadir ([2]; 50 mg/kg, qd × 7): −3.60%
Compound: CC1(C)CCC(CN2CCN(c3ccc(C(=O)NS(=O)(=O)c4ccc(NCC5CCOCC5)c([N+](=O)[O-])c4)c(Oc4cnc5[nH]ccc5c4)c3)CC2)=C(c2ccc(Cl)cc2)C1 [ABT-199, reference compound]
Tumor volume ([2]; 50 mg/kg, qd × 7): 0 mm^3
Tumor volume ([2]; 50 mg/kg, qd × 21): 17.4 mm^3

IC50 [1, 9]: 1.4 nM
IC50 [1, 8]: 2.6 nM
BW Nadir ([2]; 25 mg/kg, qd × 7): −3.60%
BW Nadir ([2]; 50 mg/kg, qd × 7): −2.90%
BW Nadir ([2]; 100 mg/kg, qd × 7): −2.10%
Compound: CC1(C)CCC(CN2CCN(c3ccc(C(=O)NS(=O)(=O)c4ccc(NCC5(F)CCOCC5)c([N+](=O)[O-])c4)c(N4CCOc5nc6[nH]ccc6cc54)c3)CC2)=C(c2ccc(Cl)cc2)C1 [Example 3, 4-(4-((4′-chloro-5,5-dimethyl-3,4,5,6-tetrahydro-[1,1′-biphenyl]-2-yl)methyl)piperazin-1-yl)-2-(2,3-dihydropyrrolo[3′,2′:5,6]pyrido[2,3-b][1,4]oxazin-1(6H)-yl)-N-((4-(((4-fluorotetrahydro-2H-pyran-4-yl)methyl)amino)-3-nitrophenyl)sulfonyl)benzamide]
Tumor volume ([2]; 25 mg/kg, qd × 7): 368 mm^3
Tumor volume ([2]; 50 mg/kg, qd × 7): 26 mm^3
tumor regression ([2]; 100 mg/kg, day 18): complete regression of the tumor
Tumor volume ([2]; 100 mg/kg, qd × 7): 0 mm^3
effect on tumor growth ([2]; 7 doses (qd × 7), 25-100 mg/kg po): dose-dependent reduction of tumor growth

AUC [3]: 35000 ng·h/mL
bioavailability [3]: 78%
half-life [3]: 4.1 h
Compound: C[C@@H]1CN(c2cc(N3CCN(CC4=C(c5ccc(Cl)cc5)CC(C)(C)CC4)CC3)ccc2C(=O)NS(=O)(=O)c2ccc(NCC3CCOCC3)c([N+](=O)[O-])c2)c2cc3cc[nH]c3nc2O1 [Example 10, (R)-4-(4-((4′-chloro-5,5-dimethyl-3,4,5,6-tetrahydro-[1,1′-biphenyl]-2-yl)methyl)piperazin-1-yl)-2-(3-methyl-2,3-dihydropyrrolo[3′,2′:5,6]pyrido[2,3-b][1,4]oxazin-1(6H)-yl)-N-((3-nitro-4-(((tetrahydro-2H-pyran-4-yl)methyl)amino)phenyl)sulfonyl)benzamide]

AUC [3]: 19900 ng·h/mL
half-life [3]: 4.1 h
Compound: C[C@H]1CN(c2cc(N3CCN(CC4=C(c5ccc(Cl)cc5)CC(C)(C)CC4)CC3)ccc2C(=O)NS(=O)(=O)c2ccc(NCC3CCOCC3)c([N+](=O)[O-])c2)c2cc3cc[nH]c3nc2O1 [Example 9, (S)-4-(4-((4′-chloro-5,5-dimethyl-3,4,5,6-tetrahydro-[1,1′-biphenyl]-2-yl)methyl)piperazin-1-yl)-2-(3-methyl-2,3-dihydropyrrolo[3′,2′:5,6]pyrido[2,3-b][1,4]oxazin-1(6H)-yl)-N-((3-nitro-4-(((tetrahydro-2H-pyran-4-yl)methyl)amino)phenyl)sulfonyl)benzamide]

IC50 [1, 9]: 1.3 nM
AUC [3]: 16100 ng·h/mL
half-life [3]: 3.2 h
Compound: C[C@@H]1CN(c2cc(N3CCN(CC4=C(c5ccc(Cl)cc5)CC(C)(C)CC4)CC3)ccc2C(=O)NS(=O)(=O)c2ccc(NCC3(F)CCOCC3)c([N+](=O)[O-])c2)c2cc3cc[nH]c3nc2O1 [Example 6 (R), (R)-4-(4-((4′-chloro-5,5-dimethyl-3,4,5,6-tetrahydro-[1,1′-biphenyl]-2-yl)methyl)piperazin-1-yl)-N-((4-(((4-fluorotetrahydro-2H-pyran-4-yl)methyl)amino)-3-nitrophenyl)sulfonyl)-2-(3-methyl-2,3-dihydropyrrolo[3′,2′:5,6]pyrido[2,3-b][1,4]oxazin-1(6H)-yl)benzamide]

IC50 [1, 9]: 5.6 nM
AUC [3]: 11000 ng·h/mL
bioavailability [3]: 90%
half-life [3]: 3.2 h
Compound: CC1(C)CCC(CN2CCN(c3ccc(C(=O)NS(=O)(=O)c4ccc(NCC5(F)CCOCC5)c([N+](=O)[O-])c4)c(N4CC(C)(C)Oc5nc6[nH]ccc6cc54)c3)CC2)=C(c2ccc(Cl)cc2)C1 [Example 7, 4-(4-((4′-chloro-5,5-dimethyl-3,4,5,6-tetrahydro-[1,1′-biphenyl]-2-yl)methyl)piperazin-1-yl)-2-(3,3-dimethyl-2,3-dihydropyrrolo[3′,2′:5,6]pyrido[2,3-b][1,4]oxazin-1(6H)-yl)-N-((4-(((4-fluorotetrahydro-2H-pyran-4-yl)methyl)amino)-3-nitrophenyl)sulfonyl)benzamide]

Compound: CN(C)CC[C@H](CSc1ccccc1)Nc1ccc(S(=O)(=O)NC(=O)c2ccc(N3CCN(Cc4ccccc4-c4ccc(Cl)cc4)CC3)cc2)cc1[N+](=O)[O-] [ABT-737]
aqueous solubility [4]: low

IC50 [1, 9]: 3.2 nM
AUC [3]: 12100 ng·h/mL
bioavailability [3]: 74%
Compound: C[C@H]1CN(c2cc(N3CCN(CC4=C(c5ccc(Cl)cc5)CC(C)(C)CC4)CC3)ccc2C(=O)NS(=O)(=O)c2ccc(NCC3(F)CCOCC3)c([N+](=O)[O-])c2)c2cc3cc[nH]c3nc2O1 [Example 6 (S), (S)-4-(4-((4′-chloro-5,5-dimethyl-3,4,5,6-tetrahydro-[1,1′-biphenyl]-2-yl)methyl)piperazin-1-yl)-N-((4-(((4-fluorotetrahydro-2H-pyran-4-yl)methyl)amino)-3-nitrophenyl)sulfonyl)-2-(3-methyl-2,3-dihydropyrrolo[3′,2′:5,6]pyrido[2,3-b][1,4]oxazin-1(6H)-yl)benzamide]

Compound: CC1(C)CCC(CN2CCN(c3ccc(C(=O)NS(=O)(=O)c4ccc(NCC5CCOCC5)c([N+](=O)[O-])c4)c(N4CCOc5nc6[nH]ccc6cc54)c3)CC2)=C(c2ccc(Cl)cc2)C1 [Example 2 (NW-4-8), 4-(4-[[2-(4-chlorophenyl)-4,4-dimethylcyclohex-1-en-1-yl]methyl]piperazin-1-yl)-N-([3-nitro-4-[(oxan-4-ylmethyl)amino]benzene]sulfonyl)-2-[13-oxa-2,4,10-triazatricyclo[7.4.0.0^[3,7]]trideca-1,3(7),5,8-tetraen-10-yl]benzamide]
IC50 ([1]; read-out: IC50, RS4, 11 5% FBS, about 72 hours, first study): 4.8 nM
AUC(h * ng/mL) [3]: 10,365 h * ng/mL
Bioavailabilty [3]: 68%
t½ [3]: 2.7 h

Compound: CC1(C)CCC(c2ccc(Cl)cc2)=C(CN2CCN(c3ccc(C(=O)NS(=O)(=O)c4ccc(N[C@H](CCN5CCOCC5)CSc5ccccc5)c(S(=O)(=O)C(F)(F)F)c4)cc3)CC2)C1 [ABT-263]
TGI [5]: 80%
treated tumors indicating at least a 50% reduction in tumor volume [5]: 20%
tumor regressions [6]: complete tumor regressions
number of circulating platelets [7]: rapid, concentration-dependent decrease in the number of circulating platelets

Reference: patent publication US11993610B2, “BCL-2 inhibitors” (Newave Pharmaceutical Inc., priority 2017, dated 2024)
